Assay results from article PMC5054527, “Mechanism of high affinity inhibition of the human urate transporter URAT1” (Scientific Reports, 2016).

What was measured:
human URAT1 = target: T1, human URAT1 (Homo sapiens, UniProt Q96S37); test: ^3H-RDEA3170 URAT1 membrane binding assay
T1 construct: hURAT1 and rURAT1 are 553 amino acid proteins with 12 transmembrane segments; expressed in transfected cells; host or cells: URAT1-transfected cells (HEK-293T per the transfection section)
T1 sequence (Q96S37 1-553): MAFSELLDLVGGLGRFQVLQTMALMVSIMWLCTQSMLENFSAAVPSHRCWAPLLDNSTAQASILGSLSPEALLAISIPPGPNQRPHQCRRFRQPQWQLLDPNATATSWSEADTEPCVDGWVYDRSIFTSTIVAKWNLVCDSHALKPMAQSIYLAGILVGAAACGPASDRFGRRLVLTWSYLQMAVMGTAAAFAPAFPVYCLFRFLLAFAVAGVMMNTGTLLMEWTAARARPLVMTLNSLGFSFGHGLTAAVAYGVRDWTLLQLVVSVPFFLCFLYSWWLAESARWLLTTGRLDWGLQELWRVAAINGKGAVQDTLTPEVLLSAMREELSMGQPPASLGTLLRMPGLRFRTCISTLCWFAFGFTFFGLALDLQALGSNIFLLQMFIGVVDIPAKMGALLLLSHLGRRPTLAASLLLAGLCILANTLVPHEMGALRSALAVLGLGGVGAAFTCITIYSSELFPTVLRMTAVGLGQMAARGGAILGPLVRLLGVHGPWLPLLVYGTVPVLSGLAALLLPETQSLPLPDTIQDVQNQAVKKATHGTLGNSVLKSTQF
Method: (§1) Membranes were prepared from URAT1-transfected cells. […] Cells were lysed with 100 strokes in a dounce homogenizer using a tight-fitting “B” stem. Lysates were transferred to 1.5 ml Eppendorf tubes and centrifuged at 250 rcf for 5 minutes at 2 °C, and supernatants were transferred to fresh tubes and centrifuged again at 18,000 rcf for 20 minutes at 2 °C. The pellets (membrane fractions) were resuspended in 1 ml of ice-cold binding buffer containing protease inhibitors and frozen at −80 °C. Protein was measured using the Bio-Rad protein assay dye reagent concentrate.
(§2) To initiate binding, membranes at 2.5 μg total protein were incubated with ^3H-RDEA3170 for 30 minutes at room temperature. […] The plates were then subjected to scintillation counting. All samples were assayed in triplicate.

rat URAT1 = target: T2, rat URAT1 (Rattus norvegicus, UniProt Q3ZAV1); test: ^3H-RDEA3170 URAT1 membrane binding assay; conditions: 500 nM ^3H-RDEA3170; membranes from transfected cells
T2 construct: hURAT1 and rURAT1 are 553 amino acid proteins with 12 transmembrane segments; expressed in transfected cells; host or cells: URAT1-transfected cells (HEK-293T per the transfection section)
T2 sequence (Q3ZAV1 whole entry): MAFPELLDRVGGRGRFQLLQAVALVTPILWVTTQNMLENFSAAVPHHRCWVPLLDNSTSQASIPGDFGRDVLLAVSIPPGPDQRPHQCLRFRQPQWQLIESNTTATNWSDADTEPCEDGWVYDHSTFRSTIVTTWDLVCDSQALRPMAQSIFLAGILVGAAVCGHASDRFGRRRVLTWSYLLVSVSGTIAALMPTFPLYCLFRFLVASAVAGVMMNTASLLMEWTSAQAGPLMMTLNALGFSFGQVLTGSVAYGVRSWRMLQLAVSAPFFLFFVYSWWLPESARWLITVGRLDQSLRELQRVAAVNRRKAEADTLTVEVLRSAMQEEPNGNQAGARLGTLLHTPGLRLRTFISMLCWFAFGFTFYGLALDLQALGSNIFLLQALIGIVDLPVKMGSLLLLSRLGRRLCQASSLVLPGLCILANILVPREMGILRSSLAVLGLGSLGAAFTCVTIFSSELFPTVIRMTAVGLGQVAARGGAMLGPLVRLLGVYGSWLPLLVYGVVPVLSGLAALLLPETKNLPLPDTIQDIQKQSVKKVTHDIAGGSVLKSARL
Method: as §1, §2

CC(C)(Sc1ccncc1-c1ccc(C#N)c2ccccc12)C(=O)O [^3H-RDEA3170, 2-((3-(4-cyanonaphthalen-1-yl)pyrindin-4-yl)thio)-2-methylpropanoic acid]
binding of probe to human URAT1 membranes (human URAT1; 500 nM ^3H-RDEA3170, membranes from transfected cells): binds to human URAT1
binding of probe to rat URAT1 membranes (rat URAT1): not rat URAT1

CCCN(CCC)S(=O)(=O)c1ccc(C(=O)O)cc1 [probenecid]
displacement of ^3H-RDEA3170 binding to hURAT1 (human URAT1; human URAT1 membranes, 10 nM ^3H-RDEA3170): displace binding of the probe
